Consider six compounds from patent publication US11325919B1, “Synthetic novel pyrroloiminoquinone alkaloid and method of use” (priority 2019, dated 2022).

“Also recorded” adds a separate entry of the source.

For one test, the system named is MCF-7. The test is described as follows: differential cytotoxicity zone assay, MCF-7. It counts as cell-based, human. The text has this: (§1) Discorhabdin A is the precursor to aleutianamine.
The next test has as its system U251N. Kind of test: differential cytotoxicity zone assay, U251N. It counts as cell-based.
Description: as §1

In another test the test system is OVC-5. The test is described as follows: differential cytotoxicity zone assay, OVC-5. The test is classed as cell-based.
Description: as §1

Another test has as its system H-116. The test is described as follows: differential cytotoxicity zone assay, H-116. The test is classed as cell-based, human.
Description: as §1

Test [1] has as its system PANC-1 pancreatic cancer cells. The test is described as follows: cytotoxicity IC50, PANC-1 pancreatic cancer cells. It counts as cell-based. The conditions noted are these: Homo sapiens; pancreatic cancer (PANC-1).
Another test concerns CEM. Kind of test: differential cytotoxicity zone assay, CEM. It counts as cell-based, human.
Description: as §1

For test [2], the system named is solid tumor cell lines compared to murine and human leukemia cells. Kind of test: differential cytotoxicity zone assay, solid tumor selectivity versus leukemia cells. It counts as cell-based.
Description: as §1

The subject of a further test is Colon 38. The test is described as follows: differential cytotoxicity zone assay, Colon 38. The test is classed as cell-based, murine.
Description: as §1

The next test has as its system LNCaP. The test is described as follows: differential cytotoxicity zone assay, LNCaP. The test is classed as cell-based, human.
Description: as §1

The next test concerns MDA. Kind of test: differential cytotoxicity zone assay, MDA. It counts as cell-based.
Description: as §1

A further test deals with L1210. Kind of test: differential cytotoxicity zone assay, L1210. The test is classed as cell-based, murine.
Description: as §1

Another test concerns CFU-GM. The test is described as follows: differential cytotoxicity zone assay, CFU-GM. The test is classed as cell-based.
Description: as §1

A further test has as its system HCT-116 cells. The test is described as follows: clonogenic studies, concentration-survival as function of exposure time. The test is classed as cell-based, human. Here is the method: Clonogenic studies were carried out using HCT-116 cells to define the concentration-survival relationship as a function of exposure time.^26 The endpoint used, tS10 (10% survival of clonogenic cells for exposure time t) provides information essential for future preclinical therapeutic studies. These clonogenic studies based on formula II yielded a 2S10 value of >5 μM; a 24S10 value of 0.75 μM; and a 168S10 value of 0.1 μM. […] Compounds shown in Formula I are simple modifications and bio-isosteres and would have similar activity to the compound of formula II.

The next test has as its system H-125. The test is described as follows: differential cytotoxicity zone assay, H-125. It counts as cell-based.
Description: as §1

Test [3] relates to human HCT-116 colon cancer cells. The test is described as follows: cytotoxicity IC50, HCT-116 colon cancer cells. The test is classed as cell-based.
In the next test the test system is PANC-1. Kind of test: differential cytotoxicity zone assay, PANC-1. The test is classed as cell-based, human.
Description: as §1

For another test, the system named is topoisomerase II. Conditions: cited from earlier work.
The next test concerns solid human tumor. Conditions: solid human tumor model; cited from earlier work.

Consider `O=C1C2=C3C4=[N+](CCc5c[nH]c1c54)[C@@H]1C[C@]34S[C@@H](C=C4C=C1Br)N2` [Aleutianamine], for which the zones of inhibition was greater than 1000 mm with MCF-7 (Conc. 1/16); 600 mm in the test with MCF-7 (Conc. 1/64); greater than 1000 mm with MCF-7 (Conc. ¼); 850 mm in the test with U251N (Conc. 1/16); 700 mm in the test with U251N (Conc. 1/64); greater than 1000 mm in the test on U251N (Conc. ¼). Moreover, the zones of inhibition is 700 mm with OVC-5 (Conc. 1/16); 350 mm in the test with OVC-5 (Conc. 1/64); 900 mm with OVC-5 (Conc. ¼); greater than 1000 mm in the test on H-116 (Conc. 2 mg/ml); 600 mm in the test on H-116 (Conc. 1/16); 250 mm in the test with H-116 (Conc. 1/64). The zones of inhibition in the test with H-116 (Conc. ¼) is 950 mm; in the test with CEM (Conc. 1/16) it was 750 mm; in the test with CEM (Conc. 1/64), 350 mm; with CEM (Conc. ¼) it was 900 mm; in the test with Colon 38 (Conc. 2 mg/ml), greater than 1000 mm; in the test with Colon 38 (Conc. 1/16) it was 900 mm. Also, the zones of inhibition with Colon 38 (Conc. 1/64) was 450 mm; in the test with Colon 38 (Conc. ¼) it was greater than 1000 mm; with LNCaP (Conc. 1/16), 1000 mm; with LNCaP (Conc. 1/64) it was 500 mm; with MDA (Conc. 1/16) it was 800 mm; in the test on MDA (Conc. 1/64) it was 500 mm. In addition, the zones of inhibition is on record as greater than 1000 mm with MDA (Conc. ¼); 950 mm with L1210 (Conc. 2 mg/ml); 500 mm with L1210 (Conc. 1/16); 250 mm with L1210 (Conc. 1/64); 700 mm in the test on L1210 (Conc. ¼); greater than 1000 mm in the test with CFU-GM (Conc. 1/16). The zones of inhibition in the test with CFU-GM (Conc. 1/64) is 750 mm; with CFU-GM (Conc. ¼) it was greater than 1000 mm; in the test with H-125 (Conc. 1/16), 900 mm; in the test on H-125 (Conc. 1/64), 400 mm; in the test on H-125 (Conc. ¼), greater than 1000 mm; with PANC-1 (Conc. 1/16), greater than 1000 mm. Further, the zones of inhibition with PANC-1 (Conc. 1/64) amounted to 650 mm. Moreover, the IC50 (usually the concentration at which inhibition is half-maximal) was determined as 0.025 µM in [1], 1 µM in [3] (colon cancer (H116)) and 1 µM in [3] (colon cancer (H116 / HCT-116)). The “selectivity of cell killing” value in test [2] is “solid tumor selectivity; also recorded: highly potent and selective for pancreatic and breast cancer as well as gliobastoma”. Besides, the “2S10 (10% survival of clonogenic cells for exposure time t)” value with HCT-116 cells (exposure time 2) was greater than 5 µM. Moreover, the “24S10 (10% survival of clonogenic cells for exposure time t)” value in the test with HCT-116 cells (exposure time 24) was 0.75 µM. Also, the “168S10 (10% survival of clonogenic cells for exposure time t)” value in the test with HCT-116 cells (exposure time 168) came out at 0.1 µM.
`O=C1CC2SC3C[C@]2(C=C1Br)C1=C(N3)C(=O)c2[nH]cc3c2C1=NCC3` (stereo partly drawn) [Discorhabdin A, discorhabdin A]: the zones of inhibition was found to be 600 mm in the test with MCF-7 (Conc. 1/16); 350 mm in the test with MCF-7 (Conc. 1/64); 800 mm in the test on MCF-7 (Conc. ¼); 300 mm with U251N (Conc. 1/16); 200 mm in the test on U251N (Conc. 1/64); 300 mm in the test with U251N (Conc. ¼). Further, the zones of inhibition in the test with OVC-5 (Conc. 1/16) is 500 mm; with OVC-5 (Conc. 1/64), 200 mm; in the test on OVC-5 (Conc. ¼) it was 700 mm; in the test with H-116 (Conc. 2 mg/ml), greater than 1000 mm; in the test on H-116 (Conc. 1/16) it was 500 mm; with H-116 (Conc. ¼), 900 mm. In addition, the zones of inhibition in the test with CEM (Conc. 1/16) was 100 mm; with CEM (Conc. 1/64), 50 mm; in the test on CEM (Conc. ¼), 450 mm; in the test on Colon 38 (Conc. 2 mg/ml) it was 750 mm; in the test with Colon 38 (Conc. 1/16) it was 700 mm; in the test on Colon 38 (Conc. ¼), 800 mm. For the same compound, the zones of inhibition in the test on LNCaP (Conc. 1/16) is on record as 500 mm; in the test on LNCaP (Conc. 1/64), 250 mm; with MDA (Conc. 1/16) it was 500 mm; in the test on MDA (Conc. 1/64), 300 mm; in the test with MDA (Conc. ¼), 1000 mm; in the test with L1210 (Conc. 2 mg/ml), 1000 mm. For the same compound, the zones of inhibition in the test on L1210 (Conc. 1/16) is recorded as 250 mm; in the test with L1210 (Conc. ¼), 300 mm; in the test with CFU-GM (Conc. 1/16), 300 mm; with CFU-GM (Conc. ¼) it was greater than 1000 mm; in the test with H-125 (Conc. 1/16), 750 mm; in the test with H-125 (Conc. 1/64) it was 400 mm. Further, the zones of inhibition was 950 mm in the test with H-125 (Conc. ¼), 150 mm in the test on PANC-1 (Conc. 1/16), 100 mm in the test with PANC-1 (Conc. 1/64) and 450 mm in the test on PANC-1 (Conc. ¼). Moreover, in the test on topoisomerase II, the “inhibition of topoisomerase II” value is given as “no inhibition”.
On to `C[C@H]([C@H](O)CCC(C)(C)O)[C@H]1CC[C@@]2(O)C3=CC(=O)[C@@H]4C[C@@H](O)[C@@H](O)C[C@]4(C)[C@H]3CC[C@]12C` [Ecdysone], for which the zones of inhibition in the test with MCF-7 (Conc. 2 mg/ml), in the test on U251N (Conc. 2 mg/ml), with OVC-5 (Conc. 2 mg/ml), in the test on H-116 (Conc. 2 mg/ml), with Colon 38 (Conc. 2 mg/ml) and in the test with LNCaP (Conc. 2 mg/ml) was 0 mm throughout. The zones of inhibition in the test with MDA (Conc. 2 mg/ml), in the test on L1210 (Conc. 2 mg/ml), in the test on H-125 (Conc. 2 mg/ml) and in the test with PANC-1 (Conc. 2 mg/ml) was 0 mm in each case.
Consider `Cn1cc2c3c1C(=O)C(N)=CC3=NCC2` [Makaluvamine A], for which the tumor size result with solid human tumor is “decrease tumor size”.
Turning to `C[N+]1=C2C=C(N)C(=O)c3[nH]cc(c32)CC1.[Cl-]` [Makaluvamine C], in the test on solid human tumor, the tumor size result is on record as “decrease tumor size”.
As to karlotoxin 2, the zones of inhibition in the test with MCF-7 (Conc. 2 mg/ml) is given as 200 mm; with U251N (Conc. 2 mg/ml), 150 mm; in the test with OVC-5 (Conc. 2 mg/ml) it was 200 mm; in the test on H-116 (Conc. 2 mg/ml), 200 mm; in the test with CEM (Conc. 2 mg/ml), 100 mm; with Colon 38 (Conc. 2 mg/ml), 200 mm. Besides, the zones of inhibition in the test with LNCaP (Conc. 2 mg/ml) was found to be 400 mm; with MDA (Conc. 2 mg/ml), 200 mm; in the test with L1210 (Conc. 2 mg/ml), 150 mm; with H-125 (Conc. 2 mg/ml) it was 100 mm; with PANC-1 (Conc. 2 mg/ml), 200 mm.
